Measured values published in patent publication US5591714A, “Derivatives of A82846” (priority 1994, dated 1997).
In brackets after ≈: the same amount, converted by molar mass.

What was measured:
Enterococcus faecium X66 = test: MIC, standard agar-dilution assay; assay type: cell-based
Method: (§1) The formula I compounds have in vitro and in vivo activity against Gram-positive pathogenic bacteria. The MIC's were determined using a standard agar-dilution assays.
^b Formerly Streptococcus faecium X66

[1] = test system: Staphylococcus aureus S13E; assay type: cell-based
Method: as §1

[2] = test system: Streptococcus pneumoniae Park 1; assay type: cell-based
Method: as §1

[3] = test system: Enterococcus faecalis 2041; test: MIC, standard agar-dilution assay; assay type: cell-based
Method: as §1
^c Formerly Streptococcus faecalis 2041

[4] = test system: Haemophilus influenzae C.L.; test: MIC, standard agar-dilution assay; assay type: cell-based
Method: as §1

[5] = test system: Staphylococcus epidermidis 222; test: MIC, standard agar-dilution assay; assay type: cell-based
Method: as §1

[6] = test system: Klebsiella pneumoniae X68; test: MIC, standard agar-dilution assay; assay type: cell-based
Method: as §1

[7] = test system: Staphylococcus aureus X400; test: MIC, standard agar-dilution assay; assay type: cell-based
Method: as §1

[8] = test system: Staphylococcus aureus NRRL X1.1; test: MIC, standard agar-dilution assay; assay type: cell-based
Method: as §1

[9] = test system: Klebsiella pneumoniae KAE; test: MIC, standard agar-dilution assay; assay type: cell-based
Method: as §1

[10] = test system: Streptococcus pyogenes C203; test: MIC, standard agar-dilution assay; assay type: cell-based
Method: as §1

[11] = test system: Staphylococcus aureus V41; test: MIC, standard agar-dilution assay; assay type: cell-based
Method: as §1

[12] = test system: Staphylococcus epidermidis EPI270; test: MIC, standard agar-dilution assay; assay type: cell-based
Method: as §1

[13] = test system: Klebsiella pneumoniae X26; test: MIC, standard agar-dilution assay; assay type: cell-based
Method: as §1

[14] = test system: Haemophilus influenzae 76; test: MIC, standard agar-dilution assay; assay type: cell-based
Method: as §1

Streptococcus pneumoniae = test: In vivo activity, experimentally infected mice (ED50); conditions: Streptococcus pneumoniae infection; doses administered subcutaneously to mice 1 and 4 hours postinfection
Staphylococcus aureus = test: as above; conditions: Staphylococcus aureus infection; doses administered subcutaneously to mice 1 and 4 hours postinfection
Streptococcus pyogenes = test: as above; conditions: Streptococcus pyogenes infection; doses administered subcutaneously to mice 1 and 4 hours postinfection

Compound: CC(C)C[C@H](C(=O)N[C@H]1C(=O)N[C@@H](CC(N)=O)C(=O)N[C@H]2C(=O)N[C@H]3C(=O)N[C@H](C(=O)N[C@H](C(=O)O)c4cc(O)cc(O)c4-c4cc3ccc4O)[C@H](O[C@H]3C[C@](C)(NCc4ccccc4)[C@@H](O)[C@H](C)O3)c3ccc(cc3)Oc3cc2cc(c3O[C@@H]2O[C@H](CO)[C@@H](O)[C@H](O)[C@H]2O[C@H]2C[C@](C)(NCc3ccccc3)[C@@H](O)[C@H](C)O2)Oc2ccc(cc2Cl)[C@H]1O)N(C)Cc1ccccc1 [Compound 12]
- MIC (Enterococcus faecium X66): 4 µg/mL (≈ 2.19 µM)
- MIC [1]: 4 µg/mL (≈ 2.19 µM)
- MIC [2]: 2 µg/mL (≈ 1.09 µM)
- MIC [3]: 8 µg/mL (≈ 4.38 µM)
- MIC [4]: > 128 µg/mL
- MIC [5]: 8 µg/mL (≈ 4.38 µM)
- MIC [6]: > 128 µg/mL
- MIC [7]: 8 µg/mL (≈ 4.38 µM)
- MIC [8]: 8 µg/mL (≈ 4.38 µM)
- MIC [9]: > 128 µg/mL
- MIC [10]: 2 µg/mL (≈ 1.09 µM)
- MIC [11]: 8 µg/mL (≈ 4.38 µM)
- MIC [12]: 8 µg/mL (≈ 4.38 µM)
- MIC [13]: > 128 µg/mL
- MIC [14]: > 128 µg/mL

Compound: CN[C@H](CC(C)C)C(=O)N[C@H]1C(=O)N[C@@H](CC(N)=O)C(=O)N[C@H]2C(=O)N[C@H]3C(=O)N[C@H](C(=O)N[C@H](C(=O)O)c4cc(O)cc(O)c4-c4cc3ccc4O)[C@H](O[C@H]3C[C@](C)(NCc4ccccc4)[C@@H](O)[C@H](C)O3)c3ccc(cc3)Oc3cc2cc(c3O[C@@H]2O[C@H](CO)[C@@H](O)[C@H](O)[C@H]2O[C@H]2C[C@](C)(NCc3ccccc3)[C@@H](O)[C@H](C)O2)Oc2ccc(cc2Cl)[C@H]1O [Compound 11]
- MIC (Enterococcus faecium X66): .25 µg/mL (≈ 0.144 µM)
- ED50 (Streptococcus pneumoniae): 0.37 mg/kg/2
- ED50 (Staphylococcus aureus): 0.58 mg/kg/2
- MIC [1]: .25 µg/mL (≈ 0.144 µM)
- MIC [2]: .25 µg/mL (≈ 0.144 µM)
- MIC [3]: 1 µg/mL (≈ 0.575 µM)
- ED50 (Streptococcus pyogenes): 0.34 mg/kg/2
- MIC [4]: > 128 µg/mL
- MIC [5]: .5 µg/mL (≈ 0.288 µM)
- MIC [6]: > 128 µg/mL
- MIC [7]: .5 µg/mL (≈ 0.288 µM)
- MIC [8]: .25 µg/mL (≈ 0.144 µM)
- MIC [9]: > 128 µg/mL
- MIC [10]: .25 µg/mL (≈ 0.144 µM)
- MIC [11]: .5 µg/mL (≈ 0.288 µM)
- MIC [12]: 1 µg/mL (≈ 0.575 µM)
- MIC [13]: > 128 µg/mL
- MIC [14]: > 128 µg/mL

Compound: CCCCCN[C@@]1(C)C[C@H](O[C@H]2[C@H](Oc3c4cc5cc3Oc3ccc(cc3Cl)[C@@H](O[C@H]3C[C@](C)(N)[C@@H](O)[C@H](C)O3)[C@@H]3NC(=O)[C@H](NC(=O)[C@@H]5NC(=O)[C@H](CC(N)=O)NC(=O)[C@H](NC(=O)[C@@H](CC(C)C)N(C)CCCCC)[C@H](O)c5ccc(c(Cl)c5)O4)c4ccc(O)c(c4)-c4c(O)cc(O)cc4[C@@H](C(=O)O)NC3=O)O[C@H](CO)[C@@H](O)[C@@H]2O)O[C@@H](C)[C@@H]1O [Compound 36]
- ED50 (Streptococcus pneumoniae): 0.29 mg/kg/2
- ED50 (Staphylococcus aureus): 1.0 mg/kg/2
- ED50 (Streptococcus pyogenes): 0.38 mg/kg/2

Compound: CNC(CC(C)C)C(=O)NC1C(=O)NC(CC(N)=O)C(=O)NC2C(=O)NC3C(=O)NC(C(=O)NC(C(=O)O)c4cc(O)cc(O)c4-c4cc3ccc4O)C(OC3CC(C)(NCc4cccc(Cl)c4)C(O)C(C)O3)c3ccc(c(Cl)c3)Oc3cc2cc(c3OC2OC(CO)C(O)C(O)C2OC2CC(C)(NCc3cccc(Cl)c3)C(O)C(C)O2)Oc2ccc(cc2Cl)C1O (stereo not drawn) [Compound 65]
- ED50 (Streptococcus pneumoniae): 0.11 mg/kg/2
- ED50 (Staphylococcus aureus): 1.59 mg/kg/2
- ED50 (Streptococcus pyogenes): 0.15 mg/kg/2

Compound: CNC(CC(C)C)C(=O)NC1C(=O)NC(CC(N)=O)C(=O)NC2C(=O)NC3C(=O)NC(C(=O)NC(C(=O)O)c4cc(O)cc(O)c4-c4cc3ccc4O)C(OC3CC(C)(NCc4ccc(Cl)cc4)C(O)C(C)O3)c3ccc(c(Cl)c3)Oc3cc2cc(c3OC2OC(CO)C(O)C(O)C2OC2CC(C)(NCc3ccc(Cl)cc3)C(O)C(C)O2)Oc2ccc(cc2Cl)C1O (stereo not drawn) [Compound 61]
- ED50 (Streptococcus pneumoniae): 0.08 mg/kg/2
- ED50 (Staphylococcus aureus): 1.83 mg/kg/2
- ED50 (Streptococcus pyogenes): 0.10 mg/kg/2
